In one test the test system is H929 tumor cells. The test can be described thus: H929 human multiple myeloma xenograft, pomalidomide study (Example 3). To be noted: pomalidomide 2.5 mg/kg ip qd × 21; constructs 40 μg/dose ip biwk × 4; FIG. 5. It is filed as in vivo, SCID mice. The method, then:
Pomalidomide, like lenalidomide, is a derivative and an analog of thalidomide with increased potency against multiple myeloma and reduced toxicity.
In brief, sixty female CB.17 SCID mice were injected with 1×10^7 H929 tumor cells subcutaneously in the right flank. […] The endpoint for the study was when tumor volume reached 2000 mm^3. Cohorts were divided as follows, as summarized in Table 6: Group 1, Vehicle (PBS); Group 2, Pomalidomide alone (2.5 mg/kg); Group 3, Anti-CD38-attenuated IFNα- (40 ug/dose); Group 4, Anti-isotype-IFNα-attenuated (40 ug/dose), Group 5, Pomalidomide (2.5 mg/kg) plus anti-CD38-attenuated IFNa (40 μg/dose); and Group 6, Pomalidomide (2.5 mg/kg) plus anti-isotype-attenuated IFNα- (40 μg/dose), Pomalidomide administration started at day 1 and ended on day 21; antibody-interferon fusion construct administration started on day 1 and ended on day 28.
(A xenograft is tissue or cells of one species grown in another, often human tumour cells in immunodeficient mice.)

Test [1] relates to H929 multiple myeloma tumor cells.
Method: In this experiment, 8-12 week-old female CB.17 severe combined immunodeficient (SCID) mice were implanted with 1×10^7 H929 multiple myeloma tumor cells in 50% Matrigel® subcutaneously in the flank. Tumor volume was measured by calipers biweekly. When tumors reached an average size of 170-350 mm^3, mice were randomized and treatment commenced. An animal was terminated if the tumor grew to a volume of greater than 2000 mm^3 before the study was completed at day 60.
Ten animals were assigned to each of groups 1 to 10. Treatment may cause “partial regression” (PR) or complete regression (CR) of the tumor in an animal. In a PR response, the tumor volume was 50% or less of its Day 1 volume for three consecutive measurements during the course of the study, and equal to or greater than 13.5 mm^3 for one or more of these three measurements. In a CR response, the tumor volume was less than 13.5 mm^3 for three consecutive measurements during the study. Any animal with a CR response at the end of the study was additionally classified as a tumor free survivor (TFS).
Test [2] relates to NCI-H929 multiple myeloma cells. The test can be described thus: NCI-H929 multiple myeloma xenograft, anti-CD38 antibody-attenuated IFN alpha-2b construct + lenalidomide (Example 1). It is filed as in vivo, SCID mice. To be noted: IFN-alpha 0.5 mg/kg; for tumor growth / tumor volume as a function of time (in words): construct 2.5 mg/kg ip biweekly (suboptimal), lenalidomide 2.5 mg/kg or 25 mg/kg daily for 21 days ip, FIG. 1, FIG. 2; for time at which tumor growth initiated and accelerated: after commencing treatment, construct 2.5 mg/kg ip biweekly, lenalidomide 2.5 mg/kg. The protocol:
When tumors reached an average size of 200-300 mm^3, mice were pair matched into different groups and then treated with vehicle (PBS), free-non-attenuated interferon alpha (IFN-alpha) at 0.5 mg/kg, a suboptimal dose of an anti-CD38 antibody-IFN alpha-2b-145D construct (2.5 mg/kg, molar equivalent to 0.5 mg/kg IFN; ip, biweekly, which was determined by previous in vivo efficacy studies), an isotype-matched antibody-IFN alpha-2b-145D construct (isotype matched to the anti-CD38 antibody, with no anti-CD38 specificity), lenalidomide alone (2.5 mg/kg), a combination of free-non-attenuated interferon alpha and lenalidomide, a combination of lenalidomide and a suboptimal dose of the anti-CD38 antibody-IFN alpha-2b-145D construct, or a combination of the isotype control antibody-IFN alpha-2b-145D construct and lenalidomide. The amount of the anti-CD38 antibody-attenuated IFN alpha-2b construct administered was normalized to an IFN-alpha molar equivalent of the 0.5 mg/kg of free interferon administered to the animals.

[3] abbreviates: Group 2: lenalidomide 25 mg/kg ip qd × 21, ten animals per group.

“Also recorded” adds a separate entry of the source.

Data on three molecules can be found in US10232041B2, “Combination of lenalidomide and polypeptide construct, and uses thereof” (Teva Pharmaceuticals Australia Pty Ltd, priority 2014, dated 2019).

On to `Nc1cccc2c1C(=O)N(C1CCC(=O)NC1=O)C2=O` (racemic) [Pomalidomide, (RS)-4-Amino-2-(2,6-dioxopiperidin-3-yl)isoindole-1,3-dione], for which, in the test on H929 tumor cells, the “tumor growth / tumor shrinkage (in words)” value was “did not substantially slow tumor growth”.

Regarding `Nc1cccc2c1CN(C1CCC(=O)NC1=O)C2=O` (racemic) [lenalidomide, (RS)-3-(4-Amino-1-oxo 1,3-dihydro-2H-isoindol-2-yl)piperidine-2,6-dione], the “MTV Day 60 (Median Tumor Volume at study end)” value in test [1] (Group 2: lenalidomide 25 mg/kg ip qd × 21) is given as 726 mm^3. In test [1] (setting [3]), the “(n) number of surviving animals used for MTV calculation, Day 60” value is on record as 1; the “CR No. of Complete Regressions” value was found to be 0; the “PR No. of Partial Regressions” value worked out at 1; the “TFS No. of Tumor Free Survivors” value worked out at 0. Besides, the “tumor growth (in words)” value in test [1] (sub-optimal dosage of construct, lenalidomide 25 mg/kg, Table 5 and FIG. 3) was “delayed tumor growth relative to vehicle control”. In test [2], the “tumor growth / tumor volume as a function of time (in words)” value was “delayed tumor growth relative to the vehicle control; also recorded: delayed the onset of rapid tumor growth”; the “time at which tumor growth initiated and accelerated” value is “within two weeks to about a month”.

For interferon alpha, in test [2], the “tumor growth / tumor volume as a function of time (in words)” value is “delayed tumor growth relative to the vehicle control”; the “time at which tumor growth initiated and accelerated” value is listed as “within two weeks to about a month”.
